# Assays:
# [1] = tested on: E. coli; test: Bacterial expression / toxicity (colony formation) of Killin and truncated Killin; assay type: cell-based; conditions: for toxicity to E. coli (colony formation in the absence of transcriptional repression): pQE32 plasmids expressing truncated Killin
# Description: Mutagenesis experiments were performed using EMS (ethylmethanesulfonate) (Sigma) as described previously with minor modification. Exponentially growing XL-1 blue with pQE32-Killin was harvested by centrifugation, washed, and resuspended in minimal A buffer (10.5 g of K2HPO4, 4.5 g of KH2PO4, 1 g of [NH4]2SO4, and 0.5 g of sodium citrate:2H2O in 1 liter). EMS was added to the cells at a concentration of 140 μM for 1 hour during continuous shaking at 37° C. After washing with minimal A buffer, cells was diluted 1:10 in LB medium and grown for 6 hrs at 37° C. before mutagenized plasmids were purified and transformed into either GH1 (without repression, GenHunter) or XL-1 blue (with repression, Stratagene) competent cells. Ampicilin resistant colonies were scored after an overnight incubation.
# For deletion analysis, PCR was performed to amplify different regions of Killin as specified. PCR primer sequences used for the deletions are listed below:
# The obtained PCR products were first cloned into PCR-TRAP cloning vector and then subcloned as BglII fragments into the BamHI site of the pQE32 6XHIS-tag expression vector (Qiagen). The expression vectors were transformed into XL-1 blue under transcription repression for the transgene (−IPTG). […] As a negative control, all vectors were simultaneously transformed into XL-1 blue cells, which gave near confluent transformants under transcription repression for all constructs. Similar deletion constructs were also made as GFP fusion protein as described above and transiently transfected into the H1299 cells to visualized their ability to cause cell apoptosis based on nuclear chromosome condensation.
# [2] = target: double-stranded DNA; test: In vitro DNA binding assay (gel shift, 32P-end labeled probes), double-stranded DNA template; conditions: 32P-end labeled oligo nucleotide probes, read-out: apparent Kd
# Description: (§1) In vitro transcribed and translated Killin cloned into pcDNA3.1 (Invitrogen) (K), or vector alone (V) were labeled with ^35S using Translabel (ICN) and a TnT kit (Promega). The labeled Killin and vector control were incubated with either single-stranded (ss) or double-stranded (ds) DNA cellulose (Sigma). After washing with PBS, bound proteins were resolved on a 15% SDS-PAGE gel, dried onto as 3M paper before autoradiography. For peptide binding, 42 as of Killin/N8-50 peptide (MW: 5007 dalton) was synthesized and verified with mass spec by Sigma-Genosys at a purity of at least 70%. The peptide was dissolved in PBS as 1 mg/mL stock solution before use, For in vitro DNA binding assay, 3 primers (32-35 bases in length) with arbitrary sequences were designed:
# (§2) After annealing, probes for artificial replication fork (LL and RL) or double-stranded DNA template (LL and RLM) were end-labeled with α-^32P-dATP (Perkin-Elmer) using Klenow (New England Biolab). Single-stranded oligonucleotide (LL) was end-labeled with […] (Perkin-Elmer) using T4 polynucleotide kinase (New England Biolab). […] For binding kinetics, bands from DNA-peptide complex were excised and the radioactivity was determined by scintillation counting. […]
# [3] = target: artificial replication fork; test: In vitro DNA binding assay (gel shift, 32P-end labeled probes), artificial replication fork; conditions: 32P-end labeled oligo nucleotide probes, read-out: apparent Kd
# Description: as §1, §2
# [4] = target: single-stranded DNA; test: In vitro DNA binding assay (gel shift, 32P-end labeled probes), single-stranded DNA template; conditions: 32P-end labeled oligo nucleotide probe, read-out: apparent Kd
# Description: as §1, §2
# [5] = tested on: SV40 origin (ori) of replication-dependent in vitro DNA replication; test: In vitro SV40 DNA replication assay; assay type: biochemical, simian virus 40 (SV40); conditions: peptide 1 to 16 μM; HEK293T nuclear extract as source of SV40 large T antigen
# Description: The SV40 origin (ori) of replication-dependent in vitro DNA replication was carried out essentially as described previously (L1 and Kelly, 1984) with minor modifications. Briefly, the source of SV40 large T antigen was from HEK293T cells (GenHunter). The SV40 ori-containing plasmid vector pAPtag-2 (GenHunter) and a negative control vector pUC18 that lacks SV40 ori were used as templates for the in vitro DNA replication assays. 10 ng of nuclear protein extracts and 250 ng of plasmid DNA template were used for each assay. Nascent DNA synthesis in the absence and presence of Killin/N8-50 peptide after ^32P-α-dATP labeling was analyzed on a 6% TBE PAGE gel, dried onto a 3 M paper (Whatman) and visualize by autoradiography.
# To determine if Killin/N8-50 peptide binding to DNA has any consequences in DNA replication, the inventors employed the commonly used in vitro eukayotic DNA replication assays originally described by L1 and Kelly (1984). This assay uses soluble cell-free system derived from mammalian cell nuclear extract that is capable of replicating exogenous plasmid DNA molecules containing the simian virus 40 (SV40) origin of replication. Replication in the system is completely dependent upon the addition of the SV40 large T antigen. […]
# [6] = tested on: single-stranded (ss) DNA cellulose; test: DNA cellulose binding of in vitro transcribed and translated 35S-labeled Killin, single-stranded; conditions: washed with PBS
# Description: as §1, with “designed: […]” for “designed:”
# [7] = tested on: double-stranded (ds) DNA cellulose; test: DNA cellulose binding of in vitro transcribed and translated 35S-labeled Killin, double-stranded; conditions: washed with PBS
# Description: as §1, with “designed: […]” for “designed:”
molecule,measurement,setting,value
"C-terminal 124-178 amino acid residues: Killin coding region truncated at unique Eco41III site, C-terminal part (CRGWRLGNWLHKHPHPNTCPRLPACWLPPILTERGERVPKLVPLLACYPKSKPKD; UniProt B2CW77 124-178, looked up, fragment)",toxicity to E. coli (colony formation in the absence of transcriptional repression),[1],able to transform E. coli into colonies
"Killin/N8-50: chemically synthesized peptide of 42 amino acid residues corresponding to N8-50 of Killin (SARPGRTVHVWGYRVEWKVRNGRKLQPSEWAGRGDLGGFKRRW; UniProt B2CW77 8-50, looked up, fragment)",Kd,[2],1000 nM
same,Kd,[3],1000 nM
same,Kd,[4],500 nM
same,inhibition of DNA replication in vitro,[5],greatly inhibit DNA replication
"N-terminal 123 amino acids: Killin coding region truncated at unique Eco41III site, N-terminal part (protein, UniProt B2CW77 1-123, looked up, fragment) MDRPGPGSARPGRTVHVWGYRVEWKVRNGRKLQPSEWAGRGDLGGFKRRWKDTRATVGTTFRRRSRVSLVGELSKFPLPSDSSGGKSSSSFARGALAWCRQRNPNPSCAAAETGARTSLPKER",toxicity to E. coli (colony formation in the absence of transcriptional repression),[1],sufficient to retain toxicity to E. coli
"Killin: novel 20 kDa basic nuclear DNA binding protein of 178 amino acids (SEQ ID NO:1), p53 target gene product (protein, listed as Homo sapiens) MDRPGPGSARPGRTVHVWGYRVEWKVRNGRKLQPSEWAGRGDLGGFKRRWKDTRATVGTTFRRRSRVSLVGELSKFPLPSDSSGGKSSSSFARGALAWCRQRNPNPSCAAAETGARTSLPKERCRGWRLGNWLHKHPHPNTCPRLPACWLPPILTERGERVPKLVPLLACYPKSKPKD",binding to DNA template,[6],able to bind
same,binding to DNA template,[7],able to bind
"6×HIS-tagged Killin: bacterially expressed full-length N-terminal His-tagged Killin (pQE32 vector) (protein, UniProt B2CW77 1-178, looked up, full-length N-terminal His6 tag) MDRPGPGSARPGRTVHVWGYRVEWKVRNGRKLQPSEWAGRGDLGGFKRRWKDTRATVGTTFRRRSRVSLVGELSKFPLPSDSSGGKSSSSFARGALAWCRQRNPNPSCAAAETGARTSLPKERCRGWRLGNWLHKHPHPNTCPRLPACWLPPILTERGERVPKLVPLLACYPKSKPKD",time to growth arrest of the bacteria hosts after IPTG induction,"[1]; bacterial expression, induction by IPTG",≤ 30 min
